In US10294202B2, “Pyrrolidinones as herbicides” (FMC Corporation, priority 2013, dated 2019):

Experiments:
galium = assay: Test A postemergence herbicide test; assay type: in vivo, Galium aparine; conditions: for Plant response rating, Galium: 125 g ai/ha, 0 to 100 scale; for Galium plant response rating (0 to 100 scale, 0 is no effect, 100 is complete control): 500 g ai/ha
In short: (§1)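 Injury was rated visually about 10 days after treatment on a 0 (no effect) to 100 (complete control) scale, compared with untreated plants. Test chemicals were sprayed postemergence onto greenhouse plants 2–10 cm high at one to two leaves, grown in a loam–sand blend.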

kochia = assay: Test A pre-/postemergence herbicide test; assay type: in vivo, Kochia scoparia; conditions: for Plant response rating, Kochia: 0 to 100 scale
From the text: (§2) Seeds of plant species selected from bamyardgrass (Echinochloa crus-galli), kochia (Kochia scoparia), ragweed (common ragweed, Ambrosia elatior), ryegrass, Italian (Italian ryegrass, Lolium multiflorum), crabgrass, large (large crabgrass Digitaria sanguinalis), giant foxtail (Setaria faberii), morningglory (Ipomoea spp.), pigweed (Amaranthus retroflexus), velvetleaf (Abutilon theophrasti), wheat (Triticum aestivum), and corn (Zea mays) were planted into a blend of loam soil and sand and treated preemergence with a directed soil spray using test chemicals formulated in a non-phytotoxic solvent mixture which included a surfactant. At the same time, plants selected from these crop and weed species and also blackgrass (Alopecurus myosuroides), and galium (catchweed bedstraw, Galium aparine) were planted in pots containing the same blend of loam soil and sand and treated with postemergence applications of test chemicals formulated in the same manner. Plants ranged in height from 2 to 10 cm and were in the one- to two-leaf stage for the postemergence treatment. Treated plants and untreated controls were maintained in a greenhouse for approximately 10 days, after which time all treated plants were compared to untreated controls and visually evaluated for injury. Plant response ratings, summarized in Table A, are based on a 0 to 100 scale where 0 is no effect and 100 is complete control. A dash (-) response means no test result.

ragweed = assay: Test A pre-/postemergence herbicide test; assay type: in vivo, Ambrosia elatior; conditions: for Plant response rating, Ragweed: 0 to 100 scale
In short: (§3)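 Seeds in loam–sand blend received preemergence directed soil spray; separately, plants 2–10 cm at one- to two-leaf stage received postemergence spray, both with test chemicals in non-phytotoxic solvent with surfactant. After ~10 days in greenhouse, injury rated visually against untreated controls, 0 (no effect) to 100 (complete control).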

barnyardgrass = assay: Test A pre-/postemergence herbicide test; assay type: in vivo, Echinochloa crus-galli
In short: as §3

wheat = assay: Test A pre-/postemergence herbicide test; assay type: in vivo, Triticum aestivum; conditions: Postemergence; for Plant response rating, Wheat: 125 g ai/ha, 0 to 100 scale; for Wheat plant response rating (0 to 100 scale, 0 is no effect, 100 is complete control): 500 g ai/ha
In short: as §3

pigweed = assay: Test A pre-/postemergence herbicide test; assay type: in vivo, Amaranthus retroflexus; conditions: for Plant response rating, Pigweed: 0 to 100 scale
In short: as §3

giant foxtail = assay: Test A pre-/postemergence herbicide test; assay type: in vivo, Setaria faberii; conditions: for Plant response rating, Foxtail, Giant: 0 to 100 scale
In short: as §3

ryegrass, Italian = assay: Test A pre-/postemergence herbicide test; assay type: in vivo, Lolium multiflorum; conditions: for Plant response rating, Ryegrass, Italian: 0 to 100 scale
From the text: as §2

blackgrass = assay: Test A postemergence herbicide test; assay type: in vivo, Alopecurus myosuroides; conditions: for Plant response rating, Blackgrass: 125 g ai/ha, 0 to 100 scale; for Blackgrass plant response rating (0 to 100 scale, 0 is no effect, 100 is complete control): 500 g ai/ha
In short: as §1

corn = assay: Test A pre-/postemergence herbicide test; assay type: in vivo, Zea mays; conditions: Postemergence; for Plant response rating, Corn: 125 g ai/ha, 0 to 100 scale; for Corn plant response rating (0 to 100 scale, 0 is no effect, 100 is complete control): 500 g ai/ha
In short: as §3

[1] = 0 is no effect, 100 is complete control
[2] = 125 g ai/ha, visual rating, 0 no effect, 100 complete control, approximately 10 days, preemergence
[3] = Postemergence, 125 g ai/ha, 0 is no effect, 100 is complete control
[4] = preemergence, 500 g ai/ha, 0 is no effect and 100 is complete control
[5] = 125 g ai/ha, visual rating, 0 to 100 scale, 0 no effect, 100 complete control, approximately 10 days, preemergence
[6] = 0 no effect, 100 complete control
[7] = Postemergence, 125 g ai/ha, 0 no effect, 100 complete control

SMILES | Galium plant response rating (0 to 100 scale, 0 is no effect, 100 is complete control) (galium) | Plant response rating, Kochia (kochia; [2]) | Kochia plant response rating (0 to 100 scale, 0 is no effect, 100 is complete control) (kochia; Postemergence, 500 g ai/ha) | Plant response rating, Ragweed (ragweed; [2]) | Ragweed plant response rating (0 to 100 scale, 0 is no effect, 100 is complete control) (ragweed; Postemergence, 500 g ai/ha) | Plant response rating, Barnyardgrass (barnyardgrass; [5]) | Barnyardgrass plant response rating (0 to 100 scale, 0 is no effect, 100 is complete control) (barnyardgrass; Postemergence, 500 g ai/ha) | Wheat plant response rating (0 to 100 scale, 0 is no effect, 100 is complete control) (wheat) | Plant response rating, Pigweed (pigweed; [2]) | Pigweed plant response rating (0 to 100 scale, 0 is no effect, 100 is complete control) (pigweed; Postemergence, 500 g ai/ha) | Plant response rating, Foxtail, Giant (giant foxtail; [2]) | Foxtail, Giant plant response rating (0 to 100 scale, 0 is no effect, 100 is complete control) (giant foxtail; Postemergence, 500 g ai/ha) | Plant response rating, Ryegrass, Italian (ryegrass, Italian; [2]) | Ryegrass, Italian plant response rating (0 to 100 scale, 0 is no effect, 100 is complete control) (ryegrass, Italian; Postemergence, 500 g ai/ha) | Blackgrass plant response rating (0 to 100 scale, 0 is no effect, 100 is complete control) (blackgrass) | Corn plant response rating (0 to 100 scale, 0 is no effect, 100 is complete control) (corn) | other results
Cc1ccc(NC(=O)C2C(=O)NCC2c2cccc(C(F)(F)F)c2)cc1C(F)(F)F (racemic) [Compound 186] | 0 | 0 | 0 | 0 | 0 | 0 | 0 | 0 | 0 | 0 | 0 | 0 | 0 | 0 | 0 | 0 | Plant response rating, Galium (galium; [1]): 0; Plant response rating, Kochia (kochia; [3]): 0; Plant response rating, Kochia (kochia; [4]): 0; Plant response rating, Ragweed (ragweed; [3]): 0; Plant response rating, Ragweed (ragweed; [4]): 0; Plant response rating, Barnyardgrass (barnyardgrass; Postemergence, 125 g ai/ha, 0 to 100 scale, 0 is no effect, 100 is complete control): 0; Plant response rating, Barnyardgrass (barnyardgrass; preemergence, 500 g ai/ha, 0 to 100 scale, 0 is no effect and 100 is complete control): 0; Plant response rating, Wheat (wheat; [1]): 0; Plant response rating, Pigweed (pigweed; [3]): 0; Plant response rating, Pigweed (pigweed; [4]): 0; Plant response rating, Foxtail, Giant (giant foxtail; [3]): 0; Plant response rating, Foxtail, Giant (giant foxtail; [4]): 0; Plant response rating, Ryegrass, Italian (ryegrass, Italian; [3]): 0; Plant response rating, Ryegrass, Italian (ryegrass, Italian; [4]): 0; Plant response rating, Blackgrass (blackgrass; [1]): 0; Plant response rating, Corn (corn; [1]): 0
Cc1ccc(C2CNC(=O)C2C(=O)Nc2ccc(F)cc2F)cc1F (racemic) [Compound 145] | 50 | 0 | 20 | 0 | 20 | 80 | 90 | 0 | 0 | 0 | 70 | 70 | 0 | 0 | 30 | 0 | Plant response rating, Galium (galium; [6]): 20; Plant response rating, Kochia (kochia; [7]): 0; Plant response rating, Kochia (kochia; preemergence, 500 g ai/ha): 0; Plant response rating, Ragweed (ragweed; [7]): 0; Plant response rating, Ragweed (ragweed; preemergence, 500 g ai/ha): 0; Plant response rating, Barnyardgrass (barnyardgrass; Postemergence, 125 g ai/ha, 0 to 100 scale, 0 no effect, 100 complete control): 70; Plant response rating, Barnyardgrass (barnyardgrass; preemergence, 500 g ai/ha, 0 to 100 scale (0 no effect, 100 complete control)): 90; Plant response rating, Wheat (wheat; [6]): 0; Plant response rating, Pigweed (pigweed; [7]): 0; Plant response rating, Pigweed (pigweed; preemergence, 500 g ai/ha): 0; Plant response rating, Foxtail, Giant (giant foxtail; [7]): 40; Plant response rating, Foxtail, Giant (giant foxtail; preemergence, 500 g ai/ha): 90; Plant response rating, Ryegrass, Italian (ryegrass, Italian; [7]): 0; Plant response rating, Ryegrass, Italian (ryegrass, Italian; preemergence, 500 g ai/ha): 0; Plant response rating, Blackgrass (blackgrass; [6]): 0; Plant response rating, Corn (corn; [6]): 0
